Source: patent EP1059033A1, “INDUSTRIAL ANTIBACTERIAL/ANTIFUNGAL AGENTS, ALGICIDES AND ANTI-BIOLOGICAL ADHESION AGENTS CONTAINING BENZYLAMINES” (Nissan Chemical Industries, Ltd., priority 1998, dated 1999)
Values after ≈ are worked out from the molar mass of the structure shown.

Assays:
Type in all cases: cell-based
Bacillus subtilis = assay: Agar dilution MIC (Example 2); conditions: agar plate, 37±1 °C, 18 to 20 hours
Protocol: (§1) Series of diluted samples (20000, 10000, 5000, 2500, 2000, 1250, 625, 313, 156, 78, 39, 20, 10, 5, 2.5, 1.25 mg/l) of the compounds of the invention were prepared using dimethylsulfoxide. A sensitive culture medium-N (Nissui Seiyaku Co.) was used for bacteria and a potato dextrose agar culture medium (Nissui Seiyaku Co.) was used for fungi. 0.5 ml of each sample was added to and mixed with 9.5 ml of the culture medium, poured into a Petri dish and solidified to obtain a plate. As a result, the concentration of the compounds of the invention in the agar culture medium were 1000, 500, 250, 125, 100, 62.5, 31.3, 15.6, 7.8, 3.9, 2.0, 1.0, 0.5, 0.25, 0.125, 0.062 mg/l. The bacterium inoculated were cultured in a bouillon for the assay of sensitivity (Nissui Seiyaku Co.) at 37 °C for 20 hours, and the fungi were cultured in the potato dextrose agar culture medium (Nissui Seiyaku Co.) for 10 days and then a 10^6 CFU/ml suspension was prepared from each of them. A test bacteria or fungi suspension was streaked on an agar plate containing the compound of the present invention with platinum wire loop, and the agar plate was cultured at 37±1 °C for 18 to 20 hours for bacteria or at 27 °C for 7 days for fungi. A concentration at which no growth was seen was taken as minimum inhibitory concentration [MIC(mg/l)]. Symbols in the table mean the followings; • A: Bacillus subtilis, • B: Trichophyton mentagrophytes, • C: Rhodotorula mucilaginosa.

[1] = tested on: Trichophyton mentagrophytes; assay: Agar dilution MIC (Example 2); conditions: 168 h, agar plate, 27 °C, 7 days
Protocol: as §1

Rhodotorula mucilaginosa = assay: Agar dilution MIC (Example 2); conditions: 168 h, agar plate, 27 °C, 7 days
Protocol: as §1

Alternaria alternata = assay: Agar dilution MIC (Example 3); conditions: 168 h, agar plate, 27 °C, 7 days
Protocol: (§2) Series of diluted samples (20000, 10000, 5000, 2500, 1250, 625, 313, 156, 78, 39 mg/l) of the compounds of the invention were prepared using dimethylsulfoxide. A sensitive culture medium-N (Nissui Seiyaku Co.) was used for bacteria and a potato dextrose agar culture medium (Nissui Seiyaku Co.) was used for fungi. 0.5 ml of each sample was added to and mixed with 9.5 ml of the culture medium, poured into a Petri dish and solidified to obtain a plate. As a result, the concentration of the compounds of the invention in the agar culture medium were 1000, 500, 250, 125, 62.5, 31.3, 15.6, 7.8, 3.9, 2.0 mg/l. The bacterium inoculated were cultured in a bouillon for the assay of sensitivity (Nissui Seiyaku Co.) at 37 °C for 20 hours, and the fungi were cultured in the potato dextrose agar culture medium (Nissui Seiyaku Co.) for 10 days and then a 10^6 CFU/ml suspension was prepared from each of them. A test bacteria or fungi suspension was streaked on an agar plate containing the compound of the present invention with platinum wire loop, and the agar plate was cultured at 37±1 °C for 18 to 20 hours for bacteria or at 27 °C for 7 days for fungi. A concentration at which no growth was seen was taken as minimum inhibitory concentration (MIC). Symbols in the tables mean the followings; • A: Bacillus subtilis, • B: Trichophyton mentagrophytes, • C: Staphylococcus aureus, • D: Aspergillus niger, • E: Penicillium funiculosum, • F: Candida albicans, • G: Micrococcus luteus, • H: Corynebacterium aquaticum, • I: Chaetomium globosum, • J: Fusarium moniliforme, • K: Saccharomyces cerevisiae, • L: Rhodotorula rubra, • M: Cladosporium cladosporioides, • N: Alternaria alternata.

Aspergillus niger = assay: Agar dilution MIC (Example 3); conditions: 168 h, agar plate, 27 °C, 7 days
Protocol: as §2

Chaetomium globosum = assay: Agar dilution MIC (Example 3); conditions: 168 h, agar plate, 27 °C, 7 days
Protocol: as §2

[2] = tested on: Corynebacterium aquaticum; assay: Agar dilution MIC (Example 3); conditions: Leifsonia aquatica, agar plate, 37±1 °C, 18 to 20 hours
Protocol: as §2

Fusarium moniliforme = assay: Agar dilution MIC (Example 3); conditions: Fusarium verticillioides, 168 h, agar plate, 27 °C, 7 days
Protocol: as §2

Penicillium funiculosum = assay: Agar dilution MIC (Example 3); conditions: Talaromyces funiculosus, 168 h, agar plate, 27 °C, 7 days
Protocol: as §2

Rhodotorula rubra = assay: Agar dilution MIC (Example 3); conditions: 168 h, agar plate, 27 °C, 7 days
Protocol: as §2

Saccharomyces cerevisiae = assay: Agar dilution MIC (Example 3); conditions: 168 h, agar plate, 27 °C, 7 days
Protocol: as §2

[3] = tested on: freshwater green alga (Selenastrum capricornutum); assay: Inhibition of propagation of freshwater green alga (Example 4); conditions: after 72 hours, cell number vs non-treated lot; for inhibition at 0.5 ppm: 500ppb, read-out: Propagation inhibiting rate(%) 500ppb
Protocol: A predetermined amount of each of the compounds of the invention was dissolved in a culture medium containing 10^5 /ml of a freshwater green alga (Selenastrum capricornutum) at a logarithmic growth phase to prepare samples having a concentration of the compound of the invention in the medium of 500 ppb and 50ppb respectively. The samples were stationary cultured at 23±1 °C for […] under continuous illumination.
After 72 hours, the number of cells was measured using a hemacytometer to obtain propagation rate. The propagation inhibiting rate was calculated from comparison with the non-treated lot.

[4] = tested on: Cladosporium cladosporioides; assay: Agar dilution MIC (Example 3); conditions: 168 h, agar plate, 27 °C, 7 days
Protocol: as §2

[5] = tested on: freshwater green alga (Chlorella pyrenoidosa); assay: Inhibition of propagation of freshwater algae (Example 6); conditions: Auxenochlorella pyrenoidosa, 500ppb, 168hr, read-out: Propagation inhibiting rate(%) 500ppb 168hr
Protocol: (§3) A predetermined amount each of the compounds of the invention was dissolved in a culture medium containing 10^5 /ml of a freshwater alga at a logarithmic growth phase to prepare samples having a concentration of the compound of the invention in the medium of 500 ppb and 50 ppb respectively. A shaking culture at 100 rpm was performed for […] under continuous illumination at 20±2 °C for freshwater diatom and at 23±2 °C for other algae.
(§4) After 72 hours and 168 hours, the […] of cells was measured using a hemacytometer to obtain propagation rate. The propagation inhibiting rate was calculated from comparison with the non-treated lot. Symbols in the tables mean the followings; • A: freshwater green alga (Chlorella pyrenoidosa), • B: freshwater blue-green alga (Microcystis aeruginosa), • C: freshwater diatom (Diatoma elongatum), • D: freshwater green alga (Scenedesmus pannonicus).

[6] = tested on: freshwater green alga (Scenedesmus pannonicus); assay: as above; conditions: Desmodesmus pannonicus, 500ppb, 72hr, read-out: Propagation inhibiting rate (%) 500ppb 72hr
Protocol: as §3, §4

[7] = tested on: seawater diatom [Nitzschia closterium]; assay: Inhibition of propagation of seawater diatom (Example 5); conditions: Cylindrotheca closterium, 72 h, read-out: Propagation inhibiting rate(%) 500ppb
Protocol: A predetermined amount of each of the compounds of the invention was dissolved in culture media containing 10^5 /ml of a seawater diatom [Nitzschia closterium] at a logarithmic growth phase to prepare samples having a concentration of the compound in the medium of 500 ppb. The samples were stationary cultured at 22±1 °C for […] under continuous illumination.
After 72 hours, cells were collected by centrifugation and disrupted by addition of methanol to extract chlorophyll, and the amount of chlorophyll was measured from absorbance using a spectrophotometer to obtain propagation rate. The propagation inhibiting rate was calculated from comparison with the non-treated lot.

Row | SMILES | MIC [1] | MIC (Rhodotorula mucilaginosa) | MIC (Chaetomium globosum) | MIC [2] | MIC (Fusarium moniliforme) | MIC (Penicillium funiculosum) | MIC (Saccharomyces cerevisiae) | inhibition at 0.5 ppm [3] | inhibition at 0.5 ppm [7] | other results
1 | CN(Cc1ccc(C(C)(C)C)cc1)Cc1c(Cl)cccc1Cl [Compound 19] | 0.25 µg/mL (≈ 0.743 µM) | – | – | – | – | – | – | – | – | MIC (Bacillus subtilis): 15.6 µg/mL (≈ 46.4 µM)
2 | Cc1cc(C)c(CN(C)Cc2ccc(C(C)(C)C)cc2)c(C)c1 [Compound 20] | 2 µg/mL (≈ 6.46 µM) | 15.6 µg/mL (≈ 50.4 µM) | 31.3 µg/mL (≈ 101 µM) | 7.8 µg/mL (≈ 25.2 µM) | 31.3 µg/mL (≈ 101 µM) | 15.6 µg/mL (≈ 50.4 µM) | 15.6 µg/mL (≈ 50.4 µM) | 63% | – | MIC (Alternaria alternata): 15.6 µg/mL (≈ 50.4 µM); MIC (Aspergillus niger): 7.8 µg/mL (≈ 25.2 µM); MIC (Rhodotorula rubra): 31.3 µg/mL (≈ 101 µM)
3 | Cc1ccc(CN(C)Cc2ccc(C(C)(C)C)cc2)cc1C [Compound 23] | 2 µg/mL (≈ 6.77 µM) | – | 125 µg/mL (≈ 423 µM) | 31.3 µg/mL (≈ 106 µM) | 125 µg/mL (≈ 423 µM) | 63 µg/mL (≈ 213 µM) | 125 µg/mL (≈ 423 µM) | 97% | – | MIC [4]: 125 µg/mL (≈ 423 µM); inhibition at 0.05 ppm ([3]; 50ppb, read-out: Propagation inhibiting rate(%) 50ppb): 65%
4 | CC(C)Cc1ccc(CN(C)Cc2cccc3ccccc23)cc1 [Compound 32] | < 1 µg/mL | – | – | – | – | – | – | 86% | – | inhibition at 0.5 ppm [5]: 75%; inhibition at 0.5 ppm [6]: 83%
5 | CC(C)(C)c1ccc(CNCc2ccc(Cl)c(Cl)c2)cc1 [Compound 34] | 7.8 µg/mL (≈ 24.2 µM) | 62.5 µg/mL (≈ 194 µM) | – | – | – | – | – | 98% | 100% | –
6 | Clc1ccc(CNCc2cccc3ccccc23)cc1Cl [Compound 49] | 15.6 µg/mL (≈ 49.3 µM) | 62.5 µg/mL (≈ 198 µM) | – | – | – | – | – | 97% | 100% | –
